{"source": "patent US7371766B2", "about": "“Curcumin analogs with anti-tumor and anti-angiogenic properties” (Emory University, priority 1999, dated 2008)", "key": {"[1]": {"test_system": "Vascular Endothelial Growth Factor (VEGF) production by human melanoma cell line RPMI-7951", "experiment": "VEGF ELISA, RPMI-7951", "details": "RPMI-7951"}, "[2]": {"test_system": "HL-60 (TB)", "experiment": "cells", "details": "Homo sapiens, HL-60, 48 h"}, "[3]": {"test_system": "K-562", "experiment": "cells", "details": "Homo sapiens, K562, 48 h"}, "[4]": {"test_system": "RPMI-8226", "experiment": "cells", "details": "Homo sapiens, RPMI-8226, 48 h"}, "[5]": {"test_system": "EKVX", "experiment": "cells", "details": "Homo sapiens, 48 h"}, "[6]": {"test_system": "NCI-H226", "experiment": "cells", "details": "Homo sapiens, NCI-H226, 48 h"}, "[7]": {"test_system": "NCI-H460", "experiment": "cells", "details": "Homo sapiens, NCI-H460, 48 h"}, "[8]": {"test_system": "COLO 205", "experiment": "cells", "details": "Homo sapiens, COLO 205, 48 h"}, "[9]": {"test_system": "KM12", "experiment": "cells", "details": "Homo sapiens, KM12, 48 h"}, "[10]": {"test_system": "SW-620", "experiment": "cells", "details": "Homo sapiens, SW-620, 48 h"}, "[11]": {"test_system": "SF-268", "experiment": "cells", "details": "Homo sapiens, SF-268, 48 h"}, "[12]": {"test_system": "SF-539", "experiment": "cells", "details": "Homo sapiens, SF-539, 48 h"}, "[13]": {"test_system": "LOX IMVI", "experiment": "cells", "details": "Homo sapiens, 48 h"}, "[14]": {"test_system": "SK-MEL-28", "experiment": "cells", "details": "Homo sapiens, SK-MEL-28, 48 h"}, "[15]": {"test_system": "SK-MEL-5", "experiment": "cells", "details": "Homo sapiens, SK-MEL-5, 48 h"}, "[16]": {"test_system": "UACC-62", "experiment": "cells", "details": "Homo sapiens, UACC-62, 48 h"}, "[17]": {"test_system": "OVCAR-4", "experiment": "cells", "details": "Homo sapiens, OVCAR-4, 48 h"}, "[18]": {"test_system": "786-0", "experiment": "cells", "details": "Homo sapiens, 786-0, 48 h"}, "[19]": {"test_system": "A498", "experiment": "cells", "details": "Homo sapiens, A498, 48 h"}, "[20]": {"test_system": "ACHN", "experiment": "cells", "details": "Homo sapiens, 48 h"}, "[21]": {"test_system": "CAKI-1", "experiment": "cells", "details": "Homo sapiens, CAKI-1, 48 h"}, "[22]": {"test_system": "RXF 393", "experiment": "cells", "details": "Homo sapiens, RXF 393, 48 h"}, "[23]": {"test_system": "SN12C", "experiment": "cells", "details": "Homo sapiens, 48 h"}, "[24]": {"test_system": "UO-31", "experiment": "cells", "details": "Homo sapiens, UO-31, 48 h"}, "[25]": {"test_system": "MCF-7", "experiment": "cells", "details": "Homo sapiens, MCF7, 48 h"}, "[26]": {"test_system": "MDA-MB-231", "experiment": "cells", "details": "Homo sapiens, MDA-MB-231, 48 h"}, "[27]": {"test_system": "HS 578T", "experiment": "cells", "details": "Homo sapiens, 48 h"}, "[28]": {"test_system": "T-47D", "experiment": "cells", "details": "Homo sapiens, T47D, 48 h"}, "[29]": {"test_system": "Sixty human tumor cell lines", "experiment": "cells", "details": "48 h"}, "[30]": {"details": "read-out: Median Growth Inhibitory Concentration (GI50)"}, "[31]": {"details": "read-out: Median Lethal Concentration (LC50)"}}, "note": "Marks after values point to notes of the source that are not given here.", "data": [{"molecule": "O=C1C(=Cc2ccccc2O)COCC1=Cc1ccccc1O", "note": "[EF25, 3,5-Bis(2-hyrdoxybenzylidene)tetrahydro4-H-pyran4-one]", "values": [{"measurement": "VEGF", "setting": "[1]; 5 μM, DMSO = 100", "result": 21, "unit": "%"}, {"measurement": "VEGF", "setting": "[1]; 5 μM, DMSO control 4197 (EF-25: 1045)", "result": "216* pg/ml"}]}, {"molecule": "3,5-Bis(2-hydroxybenzylidene)-sulfone [EF11]", "values": [{"measurement": "VEGF", "setting": "[1]; 20 μM, DMSO = 100", "result": 51, "unit": "%"}]}, {"molecule": "OC(CCc1ccc(F)cc1F)CCc1ccc(F)cc1F", "note": "[EF19, 1,5-Bis(2,4-difluorophenyl)-pentan-3-ol]", "values": [{"measurement": "GI50", "setting": "[2]; [30]", "result": 18.1, "unit": "µM"}, {"measurement": "CC50", "setting": "[2]; [31]", "result": 66.8, "unit": "µM"}, {"measurement": "GI50", "setting": "[3]; [30]", "result": 19, "unit": "µM"}, {"measurement": "CC50", "setting": "[3]; [31]", "result": 90.1, "unit": "µM"}, {"measurement": "GI50", "setting": "[4]; [30]", "result": 21.7, "unit": "µM"}, {"measurement": "CC50", "setting": "[4]; [31]", "result": "> 100", "unit": "µM"}, {"measurement": "GI50", "setting": "[5]; [30]", "result": 17.5, "unit": "µM"}, {"measurement": "CC50", "setting": "[5]; [31]", "result": 57.7, "unit": "µM"}, {"measurement": "GI50", "setting": "[6]; [30]", "result": 19.9, "unit": "µM"}, {"measurement": "CC50", "setting": "[6]; [31]", "result": 75.7, "unit": "µM"}, {"measurement": "GI50", "setting": "[7]; [30]", "result": 17.9, "unit": "µM"}, {"measurement": "CC50", "setting": "[7]; [31]", "result": 57.5, "unit": "µM"}, {"measurement": "GI50", "setting": "[8]; [30]", "result": 17.5, "unit": "µM"}, {"measurement": "CC50", "setting": "[8]; [31]", "result": 55.9, "unit": "µM"}, {"measurement": "GI50", "setting": "[9]; [30]", "result": 17.6, "unit": "µM"}, {"measurement": "CC50", "setting": "[9]; [31]", "result": 56.1, "unit": "µM"}, {"measurement": "GI50", "setting": "[10]; [30]", "result": 17.7, "unit": "µM"}, {"measurement": "CC50", "setting": "[10]; [31]", "result": 63.7, "unit": "µM"}, {"measurement": "GI50", "setting": "[11]; [30]", "result": 21.5, "unit": "µM"}, {"measurement": "CC50", "setting": "[11]; [31]", "result": 85.3, "unit": "µM"}, {"measurement": "GI50", "setting": "[12]; [30]", "result": 16.9, "unit": "µM"}, {"measurement": "CC50", "setting": "[12]; [31]", "result": 55.3, "unit": "µM"}, {"measurement": "GI50", "setting": "[13]; [30]", "result": 20, "unit": "µM"}, {"measurement": "CC50", "setting": "[13]; [31]", "result": 74.4, "unit": "µM"}, {"measurement": "GI50", "setting": "[14]; [30]", "result": 17.1, "unit": "µM"}, {"measurement": "CC50", "setting": "[14]; [31]", "result": 55.6, "unit": "µM"}, {"measurement": "GI50", "setting": "[15]; [30]", "result": 17.1, "unit": "µM"}, {"measurement": "CC50", "setting": "[15]; [31]", "result": 55.5, "unit": "µM"}, {"measurement": "GI50", "setting": "[16]; [30]", "result": 15.1, "unit": "µM"}, {"measurement": "CC50", "setting": "[16]; [31]", "result": 53.2, "unit": "µM"}, {"measurement": "GI50", "setting": "[17]; [30]", "result": 17.4, "unit": "µM"}, {"measurement": "CC50", "setting": "[17]; [31]", "result": 65.1, "unit": "µM"}, {"measurement": "GI50", "setting": "[18]; [30]", "result": 17, "unit": "µM"}, {"measurement": "CC50", "setting": "[18]; [31]", "result": 55.4, "unit": "µM"}, {"measurement": "GI50", "setting": "[19]; [30]", "result": 16.3, "unit": "µM"}, {"measurement": "CC50", "setting": "[19]; [31]", "result": 54.7, "unit": "µM"}, {"measurement": "GI50", "setting": "[20]; [30]", "result": 17.8, "unit": "µM"}, {"measurement": "CC50", "setting": "[20]; [31]", "result": 56.3, "unit": "µM"}, {"measurement": "GI50", "setting": "[21]; [30]", "result": 21.8, "unit": "µM"}, {"measurement": "CC50", "setting": "[21]; [31]", "result": 67.8, "unit": "µM"}, {"measurement": "GI50", "setting": "[22]; [30]", "result": 18.8, "unit": "µM"}, {"measurement": "CC50", "setting": "[22]; [31]", "result": 58.4, "unit": "µM"}, {"measurement": "GI50", "setting": "[23]; [30]", "result": 17.4, "unit": "µM"}, {"measurement": "CC50", "setting": "[23]; [31]", "result": 55.9, "unit": "µM"}, {"measurement": "GI50", "setting": "[24]; [30]", "result": 18.2, "unit": "µM"}, {"measurement": "CC50", "setting": "[24]; [31]", "result": 56.6, "unit": "µM"}, {"measurement": "GI50", "setting": "[25]; [30]", "result": 17.7, "unit": "µM"}, {"measurement": "CC50", "setting": "[25]; [31]", "result": 57.1, "unit": "µM"}, {"measurement": "GI50", "setting": "[26]; [30]", "result": 22.4, "unit": "µM"}, {"measurement": "CC50", "setting": "[26]; [31]", "result": 66.3, "unit": "µM"}, {"measurement": "GI50", "setting": "[27]; [30]", "result": 21.9, "unit": "µM"}, {"measurement": "CC50", "setting": "[27]; [31]", "result": "> 100", "unit": "µM"}, {"measurement": "GI50", "setting": "[28]; [30]", "result": 15.5, "unit": "µM"}, {"measurement": "CC50", "setting": "[28]; [31]", "result": 68.9, "unit": "µM"}, {"measurement": "GI50", "setting": "[29]; read-out: Median Growth Inhibitory Concentration (GI50), Mean", "result": 17.8, "unit": "µM"}, {"measurement": "CC50", "setting": "[29]; read-out: Median Lethal Concentration (LC50), Mean", "result": 64.6, "unit": "µM"}]}]}
